The values that follow come from patent US20250025451A1, “TREATMENT OF CANCER WITH KDM4 INHIBITORS” (Celgene Corporation, priority 2021, published 2025).

Data set [1] relates to SU34 patient-derived colon cancer organoid model. Put plainly: organoid colony formation assay, SU34. It counts as cell-based, human. As for the experimental part: The IC50 values for Compound 1 inhibition of colony formation and viability were determined for the patient-derived colon cancer organoid models: SU60, T002C, SU62, SU34, SU103, T03SC, and SU106, patient-derived pancreatic cancer organoid models PA016SF, PA0143F, T016P, and T028P, and a patient-derived breast cancer organoid model FS5S3.
Colony formation and viability assays were performed in multiwell plates seeded with organoids using an in vitro culture system composed of a Matrigel layer, media containing a defined set of growth factors, and co-culture with Wnt3 A-secreting mouse embryonic fibroblasts. Assays were initiated by adding either DMSO as a negative control, or an inhibitor panobinostatat 100×IC50 concentration as a positive control, or serially diluted Compound 1. The cultures were incubated for 168 or 144 hours after which the number of viable organoids in each test well was assessed respectively using one of two detection methods: CTG or staining with calcein-AM followed by imaging and colony counting. Colony count or viability of cells treated with compound 1 was expressed as a percent of the negative control. Aggregated Percent of Control values were plotted against the corresponding Compound 1 concentration and the absolute IC50 value was determined from a non-linear regression curve as the concentration where inhibition was 50% of the control.

The test system of data set [2] is KYSE-150 human esophageal cancer xenograft. It counts as in vivo. The note with it: for Median Tumor Volumes Day 21: KYSE-150 CDX Study #2, female NOD/SCID mice; for % TGI / Median Tumor Volumes Diff.: KYSE-150 Study #2; for % TGI: Day 21; for Median Tumor Volumes Diff.: Day 21 minus Day 1. As to the method:
The therapeutic in vivo efficacy of Compound 1 was evaluated in SU60 colorectal cancer, KYSE-150 esophageal cancer, COH70 triple-negative breast cancer, GXA-3036 gastric adenocarcinoma and OCI-LY19 Diffuse Large B-Cell Non-Hodgkin's Lymphoma xenograft models. In all studies, efficacy was determined based on percent tumor growth inhibition (TGI), differences in mean tumor growth, and statistical assessment of differences in net tumor volume distributions on the day of TGI analysis between control and treated animals. Tolerability was assessed based on differences in mean body weights between control and treated animals over the course of the study.
Study #2—The in vivo therapeutic efficacy and tolerability of Compound 1, administered orally as the lysine salt suspended in a vehicle comprised of 10% PEG 400 and 90% of 0.5% MC, was evaluated in the KYSE-150 ESCC CDX model established in female NOD/SCID mice. Each mouse was inoculated subcutaneously in the right flank with 1×10^7 KYSE-150 tumor cells (0.1 ml) suspended in 50% Matrigel. When the average tumor size reached ˜153 mm3, test animals were randomized into 4 groups consisting of 8 mice per group and treatments were initiated. Control mice received 10% PEG 400 and 90% of 0.5% MC vehicle PO QDx21. Treated mice received the Compound 1 lysine salt form suspended in vehicle at 10, 15, or 20 mg/kg on the same schedule. TGI was determined on Day 21 as (1−Difftreated/Diffcontrol)×100. Individual tumors were measured twice weekly in two dimensions using a caliper, and the tumor volumes (TV) in mm3 were calculated using the formula: TV=0.5 a×b2, where a and b are the long and short tumor diameters in mm, respectively; Mean tumor volumes±SEM were calculated and plotted versus days of dosing (FIG. 12 left panel). Body weights were measured twice weekly. Body weights±SEM were calculated and plotted versus days of dosing (FIG. 12 right panel).
The difference in mean net tumor volumes on the day of TGI analysis for treated versus control animals was evaluated statistically using one-way ANOVA followed by Dunnetts multiple comparisons test. Adjusted p-values are shown where a calculated probability (p)≤0.05 was considered statistically significant.

Data set [3] deals with myeloid hematopoietic progenitor cells derived from human bone marrow. Put plainly: myeloid colony formation of hematopoietic progenitor cells. Format: cell-based. As to the method:
Compound 1 was evaluated for its effects on proliferation of erythroid and myeloid hematopoietic progenitor cells derived from human bone marrow at […] Technologies Inc. (Vancouver, BC, Canada).
Cells were thawed rapidly at 37° C. into DNAse I and then diluted in 10 mL of Iscove's Modified Dulbecco's medium containing 2% fetal bovine serum (IMDM+2% FBS) and washed by centrifugation (1200 rpm for 10 minutes at room temperature). The supernatant was discarded and the cell pellet resuspended in a known volume of IMDM+2% FBS. A nucleated cell count (3% glacial acetic acid) and viability assessment (trypan blue exclusive test) were performed.
Compound 1 and positive control (panobinostat) were diluted in DMSO and tested at concentrations ranging from 0.002 μM to 5 μM in final media. These dilutions provided the appropriate final test concentrations required for the test and control articles ([…], and 0.002 μM).
Test and control articles were incubated with human bone marrow hematopoietic progenitor cells. After 14 days, cell colonies were assessed.
To calculate the concentration of 50% and 90% inhibition of colony growth (IC50 and IC90) for each test article, a dose response curve was generated plotting the log of the test article concentration versus the percentage of control colony growth using GraphPad Prism. […] The IC50 and IC90 values for both test and control articles were derived from an interpolation of the curve fit. In cases where the IC50/90 value reported by GraphPad Prism is a value beyond the range of concentrations that were actually tested, if this value is more than 4 times the highest concentration tested, or where GraphPad Prism cannot calculate an IC50/90 value, notations of >5 μM (for test article compound 1) are used.

Like-named read-outs stand apart in the source and are kept apart here.

What is called IC50 is the point on the concentration scale where inhibition reaches its midpoint. The IC90 is the concentration at which the effect reaches the 90% level. The low end stands for greater potency, the high end for weaker potency.

In the case of `CC(C)c1ccc(N(C)c2ccc3c(c2)OCC[C@H]3CNc2cnccc2C(=O)O)cc1` [Compound 1, 3-({[(4R)-7-{methyl[4-(propan-2-yl)phenyl]amino}-3,4-dihydro-2H-1-benzopyran-4-yl]methyl}amino)pyridine-4-carboxylic acid], the IC50 is greater than 10 µM in data set [1] (Homo sapiens, SU34 colorectal carcinoma model); greater than 10 µM in data set [1] (SU34 human colorectal carcinoma organoid, 144 hrs, Colony Counts); greater than 5 µM in data set [3] (336 h, human bone marrow progenitor cells, 14 days, read-out: IC50, inhibition of myeloid colony formation); greater than 5 µg/mL in data set [3] (336 h, human bone marrow progenitor cells, colony growth after 14 days, read-out: Myeloid IC50). The “Median Tumor Volumes Day 21” value came to 1027 mm^3 in data set [2] (lysine salt 10 mg/kg (free acid equivalents) PO QD x21), 620 mm^3 in data set [2] (lysine salt 15 mg/kg (free acid equivalents) PO QD x21) and 469 mm^3 in data set [2] (lysine salt 20 mg/kg (free acid equivalents) PO QD x21). For the same compound, the “% TGI” value worked out at 54% in data set [2] (10 mg/kg PO QD x21), 76% in data set [2] (15 mg/kg PO QD x21) and 84% in data set [2] (20 mg/kg PO QD x21). For the same compound, the “Median Tumor Volumes Diff.” value in data set [2] (10 mg/kg PO QD x21) turned out to be 876 mm^3; in data set [2] (15 mg/kg PO QD x21), 468 mm^3; in data set [2] (20 mg/kg PO QD x21), 315 mm^3. For the same compound, the IC90 in data set [3] (336 h, human bone marrow progenitor cells, colony growth after 14 days) is greater than 5 µg/mL. The “concentrations at which colony morphology (size and density) was slightly compromised” value in data set [3] (myeloid derived colonies) is on record as no less than 1.67 μM. Also, the “effect on colony formation compared to 0.1% DMSO” value in data set [3] (progenitor cells from normal human bone marrow, p>0.01) is listed as “no significant effect”.
